Test results: US11053281B2, “Peptoid affinity ligands” (MIKE-ANN, LLC, priority 2016, dated 2021)
Read-outs that look alike come from different tables or passages of the source. *1 amine or outer side, *2 acyl side, *3 side chain or, on linkers, in order; H or OH if unused. Where a SMILES comes first, the peptide text is derived from it. [ ]: non-standard residue; d: D form. Gly(N(CH2)2(3-indolyl)) = O=C(O)CNCCc1c[nH]c2ccccc12; N(4-hydroxyphenethyl)Gly = O=C(O)CNCCc1ccc(O)cc1; Gly(N-(CH2)3-guanidino) = N=C(N)NCCCNCC(=O)O; NGly(CH2(3-pyridyl)) = O=C(O)CNCc1cccnc1; N(CH2CH2COOH)Gly = O=C(O)CCNCC(=O)O; Gly(N(CH2)3NH2) = NCCCNCC(=O)O; Cysteamide = C(CS[*:3])N[*:1]; X1 = CSCCN(CC(=O)[*:2])[*:1]; Nphe = O=C(O)CNCc1ccccc1; NPrGly = CCCNCC(=O)O; Nme = COCCNCC(=O)O; Sar = CNCC(=O)O

Tested on: polyclonal human IgG
Assay: Adsorption isotherm of peptoid affinity resins against polyclonal human IgG
Type: binding
Set-up: Qmax: unit not given here
Settings: for Qmax: maximum capacity (qmax) of resin from isotherm fit; for Kd: peptoid ligand conjugated to chromatographic resin, IgG in PBS, hyperbola fit of isotherm, Kd given in molar, read-out: Kd x 10^−6
Description: The affinity for the peptoid-resin combinations was determined by measuring the adsorption isotherm of each resin against polyclonal human IgG (Pakimna et al., J Applied Sci., 12(11): 1136-1141, 2012). Briefly, 0.050 mL of 50% resin slurry was pipetted into 6 individual wells of a 96-well filter plate (0.45 micron, PVDF, Harvard Apparatus). The resin was washed with 2×250 μL PBS using a vacuum manifold. To an individual well, 0.25 mL of a human polyclonal IgG solution at different concentrations (10, 5, 2.5, 1.25, 0.625, and 0.3125 mg/mL) was added. The resin/IgG suspension was agitated gently on a rocking table for 30 minutes. The fluid was then collected via vacuum, and the resin was washed with 0.25 mL of PBS. The filtrate and wash were then analyzed by the BCA assay to determine the residual IgG concentration relative to the starting concentration of the solution.
The equilibrium concentrations were then used to determine the capacity of the resin at each IgG concentration using the following formula: q=Volumesample×(Initial Concentration−Equilibrium Concentration)/Volumeresin
A plot of q versus equilibrium concentration was generated and the data fit with a hyperbola to determine the affinity constant (Kd) and the maximum capacity (qmax) according to the below formula, where C=the equilibrium concentration of antibody in solution: q=qmax×C/(kd+C) Typical adsorption isotherm is shown in FIG. 2. Tabulated Kd and qmax data is found in Table 2.

Compound | Qmax (Table 2) | Kd (Table 2) [µM] | Qmax (Table 3) | Kd (Table 3) [µM]
CN(CC(=O)NCCS)C(=O)CN(CCC(=O)O)C(=O)CN(Cc1cccnc1)C(=O)CN(CCCNC(=N)N)C(=O)CN(CCC(=O)O)C(=O)CN(CCc1c[nH]c2ccccc12)C(=O)CNCc1cccnc1 [Ligand 18-28-9] (H-[NGly(CH2(3-pyridyl))][Gly(N(CH2)2(3-indolyl))][N(CH2CH2COOH)Gly][Gly(N-(CH2)3-guanidino)][NGly(CH2(3-pyridyl))][N(CH2CH2COOH)Gly][Sar]-Cysteamide) | 41 | 10 | – | –
O=C(CN(CCc1c[nH]c2ccccc12)C(=O)CN(Cc1cccnc1)C(=O)CN(CCc1c[nH]c2ccccc12)C(=O)CNCc1cccnc1)NCCS [Ligand 16-82-2] | – | – | 41 | 2.5
COCCN(CC(=O)N(CC(=O)NCCS)Cc1cccnc1)C(=O)CN(CCCN)C(=O)CNCCc1c[nH]c2ccccc12 [Ligand 16-81-7] (H-[Gly(N(CH2)2(3-indolyl))][Gly(N(CH2)3NH2)][Nme][NGly(CH2(3-pyridyl))]-Cysteamide) | – | – | 39 | 4.8
CCCN(CC(=O)N(CCc1c[nH]c2ccccc12)CC(=O)NCCS)C(=O)CN(CCc1c[nH]c2ccccc12)C(=O)CN(C)C(=O)CN(CCCNC(=N)N)C(=O)CN(CCOC)C(=O)CNCc1cccnc1 [Ligand 15-28-5] (H-[NGly(CH2(3-pyridyl))][Nme][Gly(N-(CH2)3-guanidino)][Sar][Gly(N(CH2)2(3-indolyl))][NPrGly][Gly(N(CH2)2(3-indolyl))]-Cysteamide) | – | – | 61 | 6.1
CCCN(CC(=O)N(CCc1c[nH]c2ccccc12)CC(=O)NCCS)C(=O)CN(CCc1c[nH]c2ccccc12)C(=O)CN(C)C(=O)CN(CCc1c[nH]c2ccccc12)C(=O)CN(Cc1cccnc1)C(=O)CNCCCNC(=N)N [Ligand 12-76-4] (H-[Gly(N-(CH2)3-guanidino)][NGly(CH2(3-pyridyl))][Gly(N(CH2)2(3-indolyl))][Sar][Gly(N(CH2)2(3-indolyl))][NPrGly][Gly(N(CH2)2(3-indolyl))]-Cysteamide) | 89 | 5.7 | – | –
CCCN(CC(=O)N(CCc1c[nH]c2ccccc12)CC(=O)NCCS)C(=O)CN(CCc1c[nH]c2ccccc12)C(=O)CN(C)C(=O)CN(Cc1cccnc1)C(=O)CN(CCc1c[nH]c2ccccc12)C(=O)CNCCCNC(=N)N [Ligand 18-28-6] (H-[Gly(N-(CH2)3-guanidino)][Gly(N(CH2)2(3-indolyl))][NGly(CH2(3-pyridyl))][Sar][Gly(N(CH2)2(3-indolyl))][NPrGly][Gly(N(CH2)2(3-indolyl))]-Cysteamide) | 42 | 2.6 | – | –
COCCN(CC(=O)N(CC(=O)N(CCCNC(=N)N)CC(=O)N(CC(=O)N(CCC(=O)O)CC(=O)N(C)CC(=O)NCCS)Cc1cccnc1)Cc1ccccc1)C(=O)CNCc1cccnc1 [Ligand 18-28-12] (H-[NGly(CH2(3-pyridyl))][Nme][Nphe][Gly(N-(CH2)3-guanidino)][NGly(CH2(3-pyridyl))][N(CH2CH2COOH)Gly][Sar]-Cysteamide) | 41 | 16 | – | –
NC(=O)NCCCN(CC(=O)N(CCc1c[nH]c2ccccc12)CC(=O)NCCS)C(=O)CN(CCc1c[nH]c2ccccc12)C(=O)CNCc1cccnc1 [Ligand 16-77-1] | 61 | 3.6 | – | –
CCCN(CC(=O)N(CCc1c[nH]c2ccccc12)CC(=O)NCCS)C(=O)CN(CCc1c[nH]c2ccccc12)C(=O)CN(C)C(=O)CN(CCc1c[nH]c2ccccc12)C(=O)CN(Cc1cccnc1)C(=O)CNCCCN [Ligand 12-73-4] (H-[Gly(N(CH2)3NH2)][NGly(CH2(3-pyridyl))][Gly(N(CH2)2(3-indolyl))][Sar][Gly(N(CH2)2(3-indolyl))][NPrGly][Gly(N(CH2)2(3-indolyl))]-Cysteamide) | 72 | 3.9 | – | –
COCCN(CC(=O)N(CCCN)CC(=O)N(CCc1c[nH]c2ccccc12)CC(=O)NCCS)C(=O)CNCc1cccnc1 [Ligand 16-81-6] (H-[NGly(CH2(3-pyridyl))][Nme][Gly(N(CH2)3NH2)][Gly(N(CH2)2(3-indolyl))]-Cysteamide) | – | – | 45 | 3.6
COCCNCC(=O)N(CCc1c[nH]c2ccccc12)CC(=O)N(CCc1c[nH]c2ccccc12)CC(=O)N(CCCN)CC(=O)NCCS [Ligand 16-77-4] (H-[Nme][Gly(N(CH2)2(3-indolyl))][Gly(N(CH2)2(3-indolyl))][Gly(N(CH2)3NH2)]-Cysteamide) | 44 | 4.3 | – | –
CCCNCC(=O)N(CCc1c[nH]c2ccccc12)CC(=O)NCC(=O)N(CCCNC(=N)N)CC(=O)N(CCc1c[nH]c2ccccc12)CC(=O)N(CC(=O)NCCS)Cc1cccnc1 [Ligand 12-65-9] | 76 | 9.3 | – | –
CN(CC(=O)NCCS)C(=O)CN(CCC(=O)O)C(=O)CN(Cc1cccnc1)C(=O)CN(CCCNC(=N)N)C(=O)CN(CCCNC(=N)N)C(=O)CN(CCc1ccc(O)cc1)C(=O)CNCCc1ccc(O)cc1 [Ligand 18-28-1] (H-[N(4-hydroxyphenethyl)Gly][N(4-hydroxyphenethyl)Gly][Gly(N-(CH2)3-guanidino)][Gly(N-(CH2)3-guanidino)][NGly(CH2(3-pyridyl))][N(CH2CH2COOH)Gly][Sar]-Cysteamide) | 41 | 7.7 | – | –
CCCN(CC(=O)N(C)CC(=O)N(CCc1c[nH]c2ccccc12)CC(=O)N(CCC)CC(=O)N(CCc1c[nH]c2ccccc12)CC(=O)NCCS)C(=O)CN(CCCNC(=N)N)C(=O)CNCCc1c[nH]c2ccccc12 [Ligand 12-76-3] (H-[Gly(N(CH2)2(3-indolyl))][Gly(N-(CH2)3-guanidino)][NPrGly][Sar][Gly(N(CH2)2(3-indolyl))][NPrGly][Gly(N(CH2)2(3-indolyl))]-Cysteamide) | – | – | 87 | 3.2
CCCNCC(=O)N(CC(=O)N(CC(=O)N(C)CC(=O)N(CCc1c[nH]c2ccccc12)CC(=O)N(CCC)CC(=O)N(CCc1c[nH]c2ccccc12)CC(=O)NCCS)Cc1ccccc1)Cc1cccnc1 [Ligand 12-79-4] (H-[NPrGly][NGly(CH2(3-pyridyl))][Nphe][Sar][Gly(N(CH2)2(3-indolyl))][NPrGly][Gly(N(CH2)2(3-indolyl))]-Cysteamide) | – | – | 69 | 3.6
CCCN(CC(=O)N(CCc1c[nH]c2ccccc12)CC(=O)NCCS)C(=O)CN(CCc1c[nH]c2ccccc12)C(=O)CN(C)C(=O)CN(CCC(=O)O)C(=O)CN(Cc1cccnc1)C(=O)CNCCCN [Ligand 15-91-4] (H-[Gly(N(CH2)3NH2)][NGly(CH2(3-pyridyl))][N(CH2CH2COOH)Gly][Sar][Gly(N(CH2)2(3-indolyl))][NPrGly][Gly(N(CH2)2(3-indolyl))]-Cysteamide) | – | – | 32 | 6
CCCN(CC(=O)N(CCc1c[nH]c2ccccc12)CC(=O)NCCS)C(=O)CN(CCc1c[nH]c2ccccc12)C(=O)CN(C)C(=O)CN(CCCNC(=N)N)C(=O)CN(CCc1c[nH]c2ccccc12)C(=O)CNCCC(=O)O [Ligand 18-28-7] (H-[N(CH2CH2COOH)Gly][Gly(N(CH2)2(3-indolyl))][Gly(N-(CH2)3-guanidino)][Sar][Gly(N(CH2)2(3-indolyl))][NPrGly][Gly(N(CH2)2(3-indolyl))]-Cysteamide) | – | – | 42 | 5.6
CSCCN(CC(=O)N(CCCN)CC(=O)N(CC(=O)N(CCC(=O)O)CC(=O)N(C)CC(=O)NCCS)Cc1cccnc1)C(=O)CN(Cc1ccccc1)C(=O)CNCc1cccnc1 [Ligand 16-64-4] (H-[NGly(CH2(3-pyridyl))][Nphe][X1][Gly(N(CH2)3NH2)][NGly(CH2(3-pyridyl))][N(CH2CH2COOH)Gly][Sar]-Cysteamide) | – | – | 33 | 28
COCCNCC(=O)N(CCc1c[nH]c2ccccc12)CC(=O)N(CCc1c[nH]c2ccccc12)CC(=O)N(CCCN)CC(=O)N(CC(=O)N(CCC(=O)O)CC(=O)N(C)CC(=O)NCCS)Cc1cccnc1 [Ligand 12-73-2] (H-[Nme][Gly(N(CH2)2(3-indolyl))][Gly(N(CH2)2(3-indolyl))][Gly(N(CH2)3NH2)][NGly(CH2(3-pyridyl))][N(CH2CH2COOH)Gly][Sar]-Cysteamide) | 74 | 2.7 | – | –
CCCN(CC(=O)N(CCc1c[nH]c2ccccc12)CC(=O)NCCS)C(=O)CN(CCc1c[nH]c2ccccc12)C(=O)CN(C)C(=O)CN(Cc1cccnc1)C(=O)CN(CCOC)C(=O)CNCc1cccnc1 [Ligand 15-91-1] (H-[NGly(CH2(3-pyridyl))][Nme][NGly(CH2(3-pyridyl))][Sar][Gly(N(CH2)2(3-indolyl))][NPrGly][Gly(N(CH2)2(3-indolyl))]-Cysteamide) | – | – | 80 | 66
COCCN(CC(=O)NCCS)C(=O)CN(CCc1c[nH]c2ccccc12)C(=O)CN(CCc1c[nH]c2ccccc12)C(=O)CNCCCN [Ligand 16-77-3] (H-[Gly(N(CH2)3NH2)][Gly(N(CH2)2(3-indolyl))][Gly(N(CH2)2(3-indolyl))][Nme]-Cysteamide) | 47 | 4 | – | –
